{"source": "patent US8778888B2", "about": "“Cystine knot peptides binding to alpha IIb beta 3 integrins and methods of use” (The Board of Trustees of the Leland Stanford Junior …, priority 2009, dated 2014)", "key": {"human platelets": {"tested_on": "human platelets", "conditions": "for IC50: read-out: aggregation (IC50; nM) human platelets, platelets activated with 25 μM ADP, A365 end point over 1 h; for inhibition of platelet aggregation (in words): ADP-activated human platelets, comparison with eptifibatide", "protocol": "Human platelets isolated by pheresis were obtained from the Stanford Blood Center and stored in serum with 7% acid/citrate/dextrose (ACD) solution. Prior to use, the platelets were centrifuged, aspirated, washed once with Tyrode's buffer (140 mM NaCl, 3 mM KCl, 12 mM NaHCO3, 0.4 mM NaH2PO4, 2 mM MgCl2, 0.1% glucose, pH 7.4), and counted using a haemacytometer. Counted platelets were resuspended in fresh plasma to a final concentration of approximately 2.8×10^8 cells/mL. 180 μL of the platelet solution, or approximately 5×10^7 platelets, were added to separate wells in a 96-well microtiter plate. AgRP peptide or eptifibatide (Cell Sciences) were added to the wells at varying concentrations, after which the platelets were activated with 25 μM ADP. Absorbance at 365 nm was monitored over 1 hr using a Synergy 4 microplate reader (BioTek Instrumentation) with readings taken every 35 s, with 3 s of shaking between readings. […] Experiments were performed at least 3 times.\nNext, the effects of the engineered AgRP peptides on αIIbβ3-mediated platelet aggregation were studied. Three αIIbβ3-specific peptides (2bA, 2bJ, and 2bO) and two β3-specific peptides (b3A and b3I) were tested again. […] Microtiter plates containing platelets in serum in the presence or absence of AgRP peptides were activated using ADP at a final concentration of 25 μM, and absorbance at 365 nm was monitored over 1 h."}, "[1]": {"conditions": "clinical use; cited from earlier work"}, "[2]": {"biological_target": "T1, αIIbβ3 integrin (K562-αIIbβ3 cells) (Homo sapiens, UniProt P05106+P08514)", "T1 construct": "expressed in transfected cells; host or cells: K562 leukemia cells (from S. Blystone)", "T1 sequence (P08514 32-887 limits assumed)": "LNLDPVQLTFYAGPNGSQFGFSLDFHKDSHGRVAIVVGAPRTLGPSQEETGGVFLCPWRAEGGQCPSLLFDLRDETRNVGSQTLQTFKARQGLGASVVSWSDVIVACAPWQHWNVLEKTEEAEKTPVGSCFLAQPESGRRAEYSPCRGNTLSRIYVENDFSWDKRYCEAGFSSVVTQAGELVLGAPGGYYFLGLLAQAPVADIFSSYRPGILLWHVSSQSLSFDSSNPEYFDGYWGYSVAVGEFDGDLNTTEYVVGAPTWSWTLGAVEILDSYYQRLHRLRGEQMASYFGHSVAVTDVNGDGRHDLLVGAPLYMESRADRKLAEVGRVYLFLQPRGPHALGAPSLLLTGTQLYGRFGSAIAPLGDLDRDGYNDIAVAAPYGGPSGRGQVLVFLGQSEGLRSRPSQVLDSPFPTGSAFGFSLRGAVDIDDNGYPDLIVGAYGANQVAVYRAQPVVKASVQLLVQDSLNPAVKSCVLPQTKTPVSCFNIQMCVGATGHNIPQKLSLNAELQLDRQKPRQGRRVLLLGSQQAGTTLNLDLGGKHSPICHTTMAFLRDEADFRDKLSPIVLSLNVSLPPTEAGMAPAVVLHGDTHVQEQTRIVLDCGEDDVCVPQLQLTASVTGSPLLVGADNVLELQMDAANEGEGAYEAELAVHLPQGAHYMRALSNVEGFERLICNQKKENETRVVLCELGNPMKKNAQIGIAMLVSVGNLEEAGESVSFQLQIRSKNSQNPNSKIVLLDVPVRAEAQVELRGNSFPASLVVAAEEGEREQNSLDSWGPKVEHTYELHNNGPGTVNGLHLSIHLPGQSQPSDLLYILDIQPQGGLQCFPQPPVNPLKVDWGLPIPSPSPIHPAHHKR", "T1 sequence (P08514 891-1039 partner limits assumed)": "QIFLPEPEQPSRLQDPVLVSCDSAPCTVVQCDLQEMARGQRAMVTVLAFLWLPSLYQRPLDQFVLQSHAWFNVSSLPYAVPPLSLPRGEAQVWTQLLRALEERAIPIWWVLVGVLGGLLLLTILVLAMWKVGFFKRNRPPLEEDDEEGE", "T1 sequence (P05106 27-788)": "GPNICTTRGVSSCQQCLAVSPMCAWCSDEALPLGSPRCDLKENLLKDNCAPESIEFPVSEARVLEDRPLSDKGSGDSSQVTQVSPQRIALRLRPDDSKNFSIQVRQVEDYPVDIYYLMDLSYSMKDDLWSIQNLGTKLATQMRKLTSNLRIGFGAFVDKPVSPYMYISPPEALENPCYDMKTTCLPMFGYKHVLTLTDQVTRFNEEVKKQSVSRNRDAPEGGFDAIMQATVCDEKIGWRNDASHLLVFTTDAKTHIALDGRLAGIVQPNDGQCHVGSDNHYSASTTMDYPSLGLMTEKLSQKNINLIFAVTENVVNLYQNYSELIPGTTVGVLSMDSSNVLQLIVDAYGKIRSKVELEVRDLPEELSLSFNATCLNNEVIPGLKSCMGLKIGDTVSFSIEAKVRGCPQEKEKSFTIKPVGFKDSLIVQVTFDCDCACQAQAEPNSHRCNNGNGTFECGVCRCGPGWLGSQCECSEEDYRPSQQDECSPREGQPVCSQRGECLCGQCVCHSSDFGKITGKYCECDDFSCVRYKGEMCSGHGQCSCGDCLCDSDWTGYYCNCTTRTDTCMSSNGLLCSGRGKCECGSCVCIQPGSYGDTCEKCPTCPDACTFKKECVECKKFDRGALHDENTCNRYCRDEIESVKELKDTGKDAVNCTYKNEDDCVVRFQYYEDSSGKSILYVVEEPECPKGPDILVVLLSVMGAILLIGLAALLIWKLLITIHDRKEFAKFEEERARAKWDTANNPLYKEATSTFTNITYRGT", "experiment": "Cell binding assay on K562-αIIbβ3 cells (flow cytometry)", "conditions": "K562-αIIbβ3 versus K562-αvβ3 cells", "protocol": "K562 cells stably expressing αIIbβ3, αvβ3, or αvβ5 were obtained from S. Blystone and maintained in IMDM media (Gibco) containing 10% FBS and 1.0 mg/mL geneticin. For binding assays, 10^5 cells were suspended in IBB, and varying concentrations of AgRP peptides were added. After 3 hour incubation at 4° C., the cells were centrifuged, aspirated, and resuspended in ice-cold BPBS containing a 1:20 dilution of fluorescein-conjugated goat anti-His antibody (Bethyl) for […]. The cells were then centrifuged, aspirated, and stored as pellets on ice until analysis by flow cytometry using a BD FACS Caliber instrument Becton Dickinson. Binding data was analyzed with FlowJo (Treestar, Inc.) and data was fit to sigmoidal plots using Kaleidagraph (Synergy Software) to calculate equilibrium dissociation constants. Experiments were performed at least 3 times and data are presented as average values with standard deviations.\nTo determine the integrin binding affinities and specificities of the engineered AgRP peptides, direct binding assays were performed using K562 leukemia cells that have been transfected to stably express different integrin receptors See J. Cell Biol. 127(4) (1994). Cells were incubated in the presence of varying concentrations of AgRP peptides at 4° C., to minimize receptor internalization, followed by staining with a fluorescein-conjugated anti-hexahistidine antibody and analysis by flow cytometry. Equilibrium dissociation constants (KD values) were determined by plotting AgRP peptide concentration (log scale) versus normalized mean fluorescence intensity, then fitting the data to a sigmoidal curve."}}, "note": "Where two headings read alike, the source gives them in different places. Bridge positions count the residues as written; N and C are the ends. Square brackets hold non-standard residues; d marks the D form. Peptide text beside a SMILES is read from it. hArg = N=C(N)NCCCC[C@H](N)C(=O)O; Mpa = O=C(O)CCS"}
{"smiles": "N=C(N)NCCCC[C@@H]1NC(=O)CCSSC[C@@H](C(N)=O)NC(=O)[C@@H]2CCCN2C(=O)[C@H](Cc2c[nH]c3ccccc23)NC(=O)[C@H](CC(=O)O)NC(=O)CNC1=O", "note": "[eptifibatide, Mpr-Har-Gly-Asp-Trp-Pro-Cys, reference compound] ([Mpa][hArg]GDWPC-NH2; disulfide 1-7)", "values": [{"measurement": "IC50", "setting": "human platelets", "result": "94 ± 14", "unit": "nM"}, {"measurement": "IC50", "setting": "human platelets; listed as Eptifibatide", "result": 80, "unit": "nM"}, {"measurement": "bleeding in patients", "setting": "[1]", "result": "no increases in bleeding have been reported"}]}
{"smiles": "CC(C)C[C@@H]1NC(=O)[C@@H]2CSSC[C@@H]3NC(=O)[C@H]([C@@H](C)O)NC(=O)[C@H](C)NC(=O)[C@H](C)NC(=O)[C@@H]4CCCN4C(=O)[C@H](CC(=O)O)NC(=O)[C@H](CSSC[C@H](NC(=O)CNC(=O)[C@H](CCCNC(=N)N)NC(=O)[C@@H]4CCCN4C(=O)[C@H](CCCCN)NC(=O)[C@H](CC(=O)O)NC(=O)[C@H](CC(=O)O)NC(=O)[C@H](CC(=O)O)NC(=O)[C@H](CC(=O)O)NC(=O)[C@H](CCCCN)NC(=O)[C@H](Cc4ccc(O)cc4)NC(=O)[C@H](CC(=O)O)NC(=O)[C@@H](NC(=O)[C@@H](N)Cc4ccc(O)cc4)C(C)C)C(=O)N[C@@H](C(C)C)C(=O)N[C@@H](CCCNC(=N)N)C(=O)N[C@@H](CC(C)C)C(=O)N[C@@H](Cc4c[nH]cn4)C(=O)N[C@@H](CCC(=O)O)C(=O)N[C@@H](CO)C(=O)N2)NC(=O)[C@H](CSSC[C@@H](C(=O)N[C@@H](CCCNC(=N)N)C(=O)N[C@H](C(=O)N[C@@H](CCCNC(=N)N)C(=O)N[C@@H](Cc2c[nH]cn2)C(=O)N[C@@H](Cc2c[nH]cn2)C(=O)N[C@@H](Cc2c[nH]cn2)C(=O)N[C@@H](Cc2c[nH]cn2)C(=O)N[C@@H](Cc2c[nH]cn2)C(=O)N[C@@H](Cc2c[nH]cn2)C(=O)O)[C@@H](C)O)NC(=O)[C@H](Cc2ccc(O)cc2)NC(=O)[C@@H]2CSSC[C@H](NC(=O)[C@H](Cc4ccc(O)cc4)NC3=O)C(=O)N[C@@H](C(C)C)C(=O)NCC(=O)N[C@@H](CCCNC(=N)N)C(=O)NCC(=O)N[C@@H](CC(=O)O)C(=O)N[C@@H](C(C)C)C(=O)N[C@@H](CCCNC(=N)N)C(=O)N[C@@H](CCCNC(=N)N)C(=O)N[C@@H](CCCCN)C(=O)N2)NC(=O)[C@@H]2CCCN2C(=O)[C@H](C(C)C)NC(=O)[C@H](CCC(N)=O)NC(=O)[C@H](CCC(N)=O)NC(=O)CNC1=O", "note": "[b3A]", "values": [{"measurement": "integrin binding specificity on K562 cell lines", "setting": "[2]", "result": "bound both K562-αIIbβ3 and K562-αvβ3 cells"}, {"measurement": "inhibition of platelet aggregation (in words)", "setting": "human platelets", "result": "slightly more effective"}]}
{"smiles": "CC(C)C[C@@H]1NC(=O)[C@@H]2CSSC[C@@H]3NC(=O)[C@H]([C@@H](C)O)NC(=O)[C@H](C)NC(=O)[C@H](C)NC(=O)[C@@H]4CCCN4C(=O)[C@H](CC(=O)O)NC(=O)[C@H](CSSC[C@H](NC(=O)CNC(=O)[C@H](CCCNC(=N)N)NC(=O)[C@@H]4CCCN4C(=O)[C@H](CCCCN)NC(=O)[C@H](CC(=O)O)NC(=O)[C@H](CC(=O)O)NC(=O)[C@H](CC(=O)O)NC(=O)[C@H](CC(=O)O)NC(=O)[C@H](CCCCN)NC(=O)[C@H](Cc4ccc(O)cc4)NC(=O)[C@H](CC(=O)O)NC(=O)[C@@H](NC(=O)[C@@H](N)Cc4ccc(O)cc4)C(C)C)C(=O)N[C@@H](C(C)C)C(=O)N[C@@H](CCCNC(=N)N)C(=O)N[C@@H](CC(C)C)C(=O)N[C@@H](Cc4c[nH]cn4)C(=O)N[C@@H](CCC(=O)O)C(=O)N[C@@H](CO)C(=O)N2)NC(=O)[C@H](CSSC[C@@H](C(=O)N[C@@H](CCCNC(=N)N)C(=O)N[C@H](C(=O)N[C@@H](CCCNC(=N)N)C(=O)N[C@@H](Cc2c[nH]cn2)C(=O)N[C@@H](Cc2c[nH]cn2)C(=O)N[C@@H](Cc2c[nH]cn2)C(=O)N[C@@H](Cc2c[nH]cn2)C(=O)N[C@@H](Cc2c[nH]cn2)C(=O)N[C@@H](Cc2c[nH]cn2)C(=O)O)[C@@H](C)O)NC(=O)[C@H](Cc2ccc(O)cc2)NC(=O)[C@@H]2CSSC[C@H](NC(=O)[C@H](Cc4ccc(O)cc4)NC3=O)C(=O)N[C@@H](CCCNC(=N)N)C(=O)NCC(=O)N[C@@H](CCCNC(=N)N)C(=O)NCC(=O)N[C@@H](CC(=O)O)C(=O)N[C@@H](C(C)C)C(=O)N[C@@H](CCCCN)C(=O)N[C@@H](CC(C)C)C(=O)N[C@@H](CCCNC(=N)N)C(=O)N2)NC(=O)[C@@H]2CCCN2C(=O)[C@H](C(C)C)NC(=O)[C@H](CCC(N)=O)NC(=O)[C@H](CCC(N)=O)NC(=O)CNC1=O", "note": "[b3I]", "values": [{"measurement": "integrin binding specificity on K562 cell lines", "setting": "[2]", "result": "bound both K562-αIIbβ3 and K562-αvβ3 cells"}, {"measurement": "inhibition of platelet aggregation (in words)", "setting": "human platelets", "result": "slightly more effective"}]}
{"smiles": "CC(C)C[C@@H]1NC(=O)[C@@H]2CSSC[C@@H]3NC(=O)[C@H]([C@@H](C)O)NC(=O)[C@H](C)NC(=O)[C@H](C)NC(=O)[C@@H]4CCCN4C(=O)[C@H](CC(=O)O)NC(=O)[C@H](CSSC[C@H](NC(=O)CNC(=O)[C@H](CCCNC(=N)N)NC(=O)[C@@H]4CCCN4C(=O)[C@H](CCCCN)NC(=O)[C@H](CC(=O)O)NC(=O)[C@H](CC(=O)O)NC(=O)[C@H](CC(=O)O)NC(=O)[C@H](CC(=O)O)NC(=O)[C@H](CCCCN)NC(=O)[C@H](Cc4ccc(O)cc4)NC(=O)[C@H](CC(=O)O)NC(=O)[C@@H](NC(=O)[C@@H](N)Cc4ccc(O)cc4)C(C)C)C(=O)N[C@@H](C(C)C)C(=O)N[C@@H](CCCNC(=N)N)C(=O)N[C@@H](CC(C)C)C(=O)N[C@@H](Cc4c[nH]cn4)C(=O)N[C@@H](CCC(=O)O)C(=O)N[C@@H](CO)C(=O)N2)NC(=O)[C@H](CSSC[C@@H](C(=O)N[C@@H](CCCNC(=N)N)C(=O)N[C@H](C(=O)N[C@@H](CCCNC(=N)N)C(=O)N[C@@H](Cc2c[nH]cn2)C(=O)N[C@@H](Cc2c[nH]cn2)C(=O)N[C@@H](Cc2c[nH]cn2)C(=O)N[C@@H](Cc2c[nH]cn2)C(=O)N[C@@H](Cc2c[nH]cn2)C(=O)N[C@@H](Cc2c[nH]cn2)C(=O)O)[C@@H](C)O)NC(=O)[C@H](Cc2ccc(O)cc2)NC(=O)[C@@H]2CSSC[C@H](NC(=O)[C@H](Cc4ccc(O)cc4)NC3=O)C(=O)N[C@@H](CCCCN)C(=O)N[C@@H](CCCCN)C(=O)N[C@@H](CCCNC(=N)N)C(=O)NCC(=O)N[C@@H](CC(=O)O)C(=O)N[C@@H](Cc3c[nH]c4ccccc34)C(=O)N[C@@H](CCCCN)C(=O)N[C@@H](CCC(=O)O)C(=O)N[C@@H](CCCNC(=N)N)C(=O)N2)NC(=O)[C@@H]2CCCN2C(=O)[C@H](C(C)C)NC(=O)[C@H](CCC(N)=O)NC(=O)[C@H](CCC(N)=O)NC(=O)CNC1=O", "note": "[Clone 2bO]", "values": [{"measurement": "integrin binding specificity on K562 cell lines", "setting": "[2]", "result": "bound K562-αIIbβ3 cells only"}]}
